Laboratory results reported in ChEMBL document CHEMBL4831536, “Neuroregenerative Potential of Prenyl- and Pyranochalcones: A Structure-Activity Study” (J Nat Prod, 2021).
Calls of active or inactive are those of the source. The calls are words filed in the database; no cut-off is given here.

How the values were obtained:
MEF [1] = assay: Neuro-regenerative activity in NMRI mouse MEF cells transfected with human DCX promoter-driven firefly luciferase reporter assessed as induction of neuronal differentiation at 10 uM incubated for 3 days by luciferase reporter gene based luminescence analysis; assay type: functional, cell-based; settings: time 3.0 day
MEF [2] = assay: Cytotoxicity against NMRI mouse MEF cells assessed as effect on cell proliferation by measuring effect on renilla activity at 10 uM incubated for 3 days by luminescence based analysis; settings: 72 h, time 3 day
MEF [3] = assay: Neuro-regenerative activity in NMRI mouse MEF cells transfected with human DCX promoter-driven firefly luciferase reporter assessed as induction of neuronal differentiation at 10 uM incubated for 3 days by luciferase reporter gene based luminescence analysis relative to control; assay type: functional; settings: time 3 day

COc1cc2c(c3c1C(=O)CC(c1ccc(O)cc1)O3)C=CC(C)(C)O2 (stereo not drawn)
Activity (MEF [1]): Active

COc1cc2c(c(O)c1C(=O)/C=C/c1ccc(O)c(O)c1)C=CC(C)(C)O2
Activity (MEF [1]): Active | Activity (MEF [2]): Non-Toxic

CC1(C)C=Cc2c(cc(O)c3c2OC(c2ccc(O)cc2)CC3=O)O1 (stereo not drawn)
Activity (MEF [1]): Active

COc1cc2c(c(O)c1C(=O)/C=C/c1ccc3c(c1)OCO3)C=CC(C)(C)O2
Activity (MEF [1]): Active

COc1cc2c(c(O)c1C(=O)/C=C/c1ccc(O)cc1)C=CC(C)(C)O2 [XANTHOHUMOL C]
Ratio (MEF [3]): 1.56 | Activity (MEF [2]): Non-Toxic

CC1(C)C=Cc2c(cc3c(c2O)C(=O)CC(c2ccc(O)cc2)O3)O1 (stereo not drawn)
Activity (MEF [1]): Active

COc1cc(O)c(CC=C(C)C)c(O)c1C(=O)/C=C/c1ccc(O)cc1 [XANTHOHUMOL]
Ratio (MEF [3]): 5.55 | Activity (MEF [2]): Toxic

COc1cc2c(c(O)c1C(=O)/C=C/c1ccc(O)cc1)CCC(C)(C)O2
Activity (MEF [1]): Active

COc1cc2c(c(O)c1C(=O)/C=C/c1ccc(O)cc1)C=CC(C)(CCC=C(C)C)O2 (stereo not drawn)
Activity (MEF [1]): inactive

COc1ccc(/C=C/C(=O)c2c(OC)cc3c(c2O)C=CC(C)(C)O3)cc1
Activity (MEF [1]): Active
